Laboratory results taken from ChEMBL document CHEMBL1123274, “Azasteroids: structure-activity relationships for inhibition of 5 alpha-reductase and of androgen receptor binding” (J Med Chem, 1986).

How the values were obtained:
Androgen receptor = biological target: T1, Androgen receptor (Rattus norvegicus, UniProt P15207); experiment: In vitro antagonist activity against rat prostatic androgen receptor (AR)
T1 sequence (P15207 whole entry): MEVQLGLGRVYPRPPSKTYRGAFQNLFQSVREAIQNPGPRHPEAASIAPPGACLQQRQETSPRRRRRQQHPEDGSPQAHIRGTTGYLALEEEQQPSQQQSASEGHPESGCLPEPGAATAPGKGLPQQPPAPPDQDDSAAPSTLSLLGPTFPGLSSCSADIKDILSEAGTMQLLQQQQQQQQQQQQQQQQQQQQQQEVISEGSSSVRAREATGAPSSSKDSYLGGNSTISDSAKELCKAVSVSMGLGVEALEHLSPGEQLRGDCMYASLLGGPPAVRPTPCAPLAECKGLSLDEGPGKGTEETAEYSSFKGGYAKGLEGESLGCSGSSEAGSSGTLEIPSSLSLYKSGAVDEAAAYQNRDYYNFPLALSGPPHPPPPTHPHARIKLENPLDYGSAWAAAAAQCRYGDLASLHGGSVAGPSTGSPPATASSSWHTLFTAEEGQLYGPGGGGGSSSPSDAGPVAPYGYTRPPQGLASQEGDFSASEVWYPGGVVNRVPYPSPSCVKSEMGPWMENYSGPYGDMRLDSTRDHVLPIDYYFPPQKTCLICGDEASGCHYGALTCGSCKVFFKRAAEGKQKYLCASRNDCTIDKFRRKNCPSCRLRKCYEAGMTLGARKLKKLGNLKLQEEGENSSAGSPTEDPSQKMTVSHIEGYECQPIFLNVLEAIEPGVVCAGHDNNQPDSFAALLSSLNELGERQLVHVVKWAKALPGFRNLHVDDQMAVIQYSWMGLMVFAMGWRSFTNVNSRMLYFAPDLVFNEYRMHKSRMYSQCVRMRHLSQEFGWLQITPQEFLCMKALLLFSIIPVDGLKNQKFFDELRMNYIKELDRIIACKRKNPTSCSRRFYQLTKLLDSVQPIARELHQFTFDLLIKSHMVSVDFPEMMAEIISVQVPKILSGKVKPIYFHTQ

[1] = biological target: T2, Steroid 5-alpha-reductase (Rattus norvegicus, UniProt P24008+P31214); experiment: Inhibition of Steroid 5-alpha-reductase from rat prostate; assay type: tissue-based, Prostate gland
T2 sequence (P24008 whole entry): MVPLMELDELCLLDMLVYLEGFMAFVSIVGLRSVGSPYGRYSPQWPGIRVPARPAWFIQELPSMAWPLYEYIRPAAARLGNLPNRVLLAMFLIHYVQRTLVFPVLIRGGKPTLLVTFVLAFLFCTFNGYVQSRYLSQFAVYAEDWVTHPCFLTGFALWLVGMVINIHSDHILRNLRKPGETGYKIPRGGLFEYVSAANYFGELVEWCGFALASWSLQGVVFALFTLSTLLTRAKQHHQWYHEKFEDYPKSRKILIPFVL
T2 sequence (P31214 whole entry): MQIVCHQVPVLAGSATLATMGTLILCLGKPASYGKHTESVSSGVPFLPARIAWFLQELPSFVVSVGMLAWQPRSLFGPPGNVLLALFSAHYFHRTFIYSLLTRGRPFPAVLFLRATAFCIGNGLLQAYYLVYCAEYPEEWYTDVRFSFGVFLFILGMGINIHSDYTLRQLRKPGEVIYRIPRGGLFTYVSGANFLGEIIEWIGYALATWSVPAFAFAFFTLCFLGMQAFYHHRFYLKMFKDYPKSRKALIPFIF

[2] = biological target: T2, Steroid 5-alpha-reductase; experiment: In vitro inhibitory activity against rat prostatic steroid 5-alpha-reductase; assay type: protein assay

Compound	IC50 (Androgen receptor) [nM]	IC50 [1]	IC50 [2] [nM]
CC(O)[C@H]1CC[C@H]2[C@@H]3CCC4N(C)C(=O)CC[C@]4(C)[C@H]3CC[C@]12C (some centres undefined)	74	1.9e-08 M	–
CCN(CC)C(=O)CCC(C)[C@H]1CC[C@H]2[C@@H]3CCC4N(C)C(=O)CC[C@]4(C)[C@H]3CC[C@]12C (some centres undefined)	430	–	3.4
CCN(CC)C(=O)C(C)[C@H]1CC[C@H]2[C@@H]3CCC4N(C)C(=O)CC[C@]4(C)[C@H]3CC[C@]12C (some centres undefined)	48000	–	13
CC(CCC(=O)[O-])[C@H]1CC[C@H]2[C@@H]3CCC4N(C)C(=O)CC[C@]4(C)[C@H]3CC[C@]12C.[Na+] (some centres undefined)	21000	–	3.6
CC(C)N(C(=O)[C@H]1CC[C@H]2[C@@H]3CC[C@H]4N(C)C(=O)CC[C@]4(C)[C@H]3CC[C@]12C)C(C)C	14000	–	3.5
CC(C)N(C(=O)[C@H]1CC[C@H]2[C@@H]3CC[C@@H]4N(C)C(=O)CC[C@]4(C)[C@H]3CC[C@]12C)C(C)C	> 10000	–	1000
CCN(CC)C(=O)[C@H]1CC[C@H]2[C@@H]3CC[C@H]4N(C)C(=O)[C@@H](C)C[C@]4(C)[C@H]3CC[C@]12C	6100	–	20
CCN(CC)C(=O)[C@H]1CC[C@H]2[C@@H]3CC[C@H]4N(C)C(=O)C[C@H](C)[C@]4(C)[C@H]3CC[C@]12C	16000	–	86
CN1C(=O)CC[C@@]2(C)C1CC[C@H]1[C@@H]3CC[C@H](O)[C@@]3(C)CC[C@@H]12 (some centres undefined)	19	1.5e-07 M	–
CCN(CC)C(=O)C[C@H]1CC[C@H]2[C@@H]3CCC4N(C)C(=O)CC[C@]4(C)[C@H]3CC[C@]12C (some centres undefined)	560	–	7.9
CC(=O)[C@H]1CC[C@H]2[C@@H]3CCC4NC(=O)CC[C@]4(C)[C@H]3CC[C@]12C (some centres undefined)	68000	5e-08 M	–
C[C@]12CC[C@H]3[C@@H](CCC4NC(=O)CC[C@@]43C)[C@@H]1CC[C@@H]2O (some centres undefined)	930	2.5e-07 M	–
COC(=O)C(C)[C@H]1CC[C@H]2[C@@H]3CCC4N(C)C(=O)CC[C@]4(C)[C@H]3CC[C@]12C (some centres undefined)	960	–	22
CCN(CC)C(=O)[C@H]1CC[C@H]2[C@@H]3CC[C@H]4N(C)C(=O)C[C@H](C#N)[C@]4(C)[C@H]3CC[C@]12C	> 10000	–	> 1000
CC(=O)[C@H]1[C@H](C)C[C@H]2[C@@H]3CCC4N(C)C(=O)CC[C@]4(C)[C@H]3CC[C@@]21C (some centres undefined)	290	–	3.4
CCCCCCCCCCCCCCCCCCNC(=O)[C@H]1CC[C@H]2[C@@H]3CCC4N(C)C(=O)CC[C@]4(C)[C@H]3CC[C@]12C (some centres undefined)	17000	–	20
CCN(CC)C(=O)[C@H]1CC[C@H]2[C@@H]3CC[C@H]4N(C)/C(=N/O)CC[C@]4(C)[C@H]3CC[C@]12C	540	–	100
CCN(CC)C(=O)[C@H]1CC[C@H]2[C@@H]3CC[C@H]4N(NC=O)C(=O)CC[C@]4(C)[C@H]3CC[C@]12C	> 10000	–	400
C[C@]12CCC(=O)C=C1CC[C@@H]1[C@@H]2CC[C@@]2(C)[C@H]1CC[C@@]21CCCO1	89	1.1e-06 M	–
CCNC(=O)[C@H]1CC[C@H]2[C@@H]3CCC4N(C)C(=O)CC[C@]4(C)[C@H]3CC[C@]12C (some centres undefined)	1100	–	12
CNC(=O)[C@H]1CC[C@H]2[C@@H]3CCC4N(C)C(=O)CC[C@]4(C)[C@H]3CC[C@]12C (some centres undefined)	1100	–	38
CC(O)[C@H]1[C@H](C)C[C@H]2[C@@H]3CCC4N(C)C(=O)CC[C@]4(C)[C@H]3CC[C@@]21C (some centres undefined)	170	–	2.8

Compound	IC50 (Androgen receptor) [nM]	IC50 [1]	IC50 [2] [nM]
CN1C(=O)CC[C@@]2(C)C1CC[C@@H]1[C@@H]2CC[C@@]2(C)[C@H]1CC[C@@]21CCC(=O)O1 (some centres undefined)	89	–	40
C[C@]12CC[C@H]3[C@@H](CCC4=CC(=O)CC[C@@H]43)[C@@H]1CC[C@@]21CCCO1	30	1.5e-06 M	–
C=C1C[C@@H]2[C@H](CC[C@@]3(C)[C@H]2CC[C@]3(OC(C)=O)C(C)=O)[C@@]2(C)CCC(=O)C=C12	–	1.6e-07 M	–
CC(O)[C@H]1CC[C@H]2[C@@H]3CCC4NC(=O)CC[C@]4(C)[C@H]3CC[C@]12C (some centres undefined)	9300	4.5e-08 M	–
CCN(CC)C(=O)[C@H]1CC[C@H]2[C@@H]3CCC4=CC(=O)CC[C@]4(C)[C@H]3CC[C@]12C	340	7.6e-07 M	–
CC(=O)[C@H]1CC[C@H]2[C@@H]3CCC4N(C)C(=O)CC[C@]4(C)[C@H]3CC[C@]12C (some centres undefined)	210	2.3e-08 M	–
CC(=O)N[C@H]1CC[C@H]2[C@@H]3CCC4N(C)C(=O)CC[C@]4(C)[C@H]3CC[C@]12C (some centres undefined)	1400	–	270
CC(C#N)[C@H]1CC[C@H]2[C@@H]3CCC4N(C)C(=O)CC[C@]4(C)[C@H]3CC[C@]12C (some centres undefined)	290	–	7.6
CN1C(=O)CC[C@@]2(C)C1CC[C@H]1[C@@H]3CC[C@H](C(=O)N4CCOCC4)[C@@]3(C)CC[C@@H]12 (some centres undefined)	10000	–	27
C[C@H]1CC2N(C)C(=O)CC[C@]2(C)[C@H]2CC[C@@]3(C)[C@@H](CC[C@@]34CCCO4)[C@H]12 (some centres undefined)	500	–	4.6
CC(C)N(C(=O)[C@H]1CC[C@H]2[C@@H]3CCC4NC(=O)C=C[C@]4(C)[C@H]3CC[C@]12C)C(C)C (some centres undefined)	18000	–	79
CC(C)N(C(=O)[C@H]1CC[C@H]2[C@@H]3CCC4N(C)C(=O)C=C[C@]4(C)[C@H]3CC[C@]12C)C(C)C (some centres undefined)	10000	–	430
CN1C(=O)C=C[C@@]2(C)C1CC[C@H]1[C@@H]3CC[C@H](C(=O)NC(C)(C)C)[C@@]3(C)CC[C@@H]12 (some centres undefined)	150	–	13
CCN(CC)C(=O)[C@H]1CCC[C@H]2[C@@H]3CC[C@H]4N(C)C(=O)OC[C@]4(C)[C@H]3CC[C@]12C	3700	–	500
CC(C)(C)NC(=O)[C@H]1CC[C@H]2[C@@H]3CCC4NC(=O)CC[C@]4(C)[C@H]3CC[C@]12C (some centres undefined)	> 100000	–	6.3
CCN1C(=O)CC[C@@]2(C)C1CC[C@@H]1[C@@H]2CC[C@@]2(C)[C@H]1CC[C@@]21CCCO1 (some centres undefined)	13000	–	1170
CCN(CC)C(=O)[C@H]1CC[C@H]2[C@@H]3CC=C4N(N)C(=O)CC[C@]4(C)[C@H]3CC[C@]12C	5400	–	36
CCN(CC)C(=O)[C@H]1CC[C@H]2[C@@H]3CC=C4N(O)C(=O)CC[C@]4(C)[C@H]3CC[C@]12C	190	–	220
CCN(CC)C(=O)[C@H]1CC[C@H]2[C@@H]3CC[C@H]4N(C)C(=O)C=C[C@]4(C)[C@H]3CC[C@]12C	450	–	290
CCN(CC)C(=O)[C@H]1CC[C@H]2[C@@H]3CC[C@@H]4NC(=O)CC[C@]4(C)[C@H]3CC[C@]12C (stereo in doubt; 79)	> 10000	–	> 1000
C[C@]12CCC(=O)C[C@@H]1CC[C@@H]1[C@@H]2CC[C@]2(C)[C@@H](O)CC[C@@H]12 [STANOLONE]	–	>> 1e-6 M	–
